According to PubChem BioAssay AID330 (DTP/NCI, 2004):
Several values for one entry are separate records, joined by “and”; a condition that tells them apart may be missing. Identical values can stand only once. Inconclusive results and toxic doses are left out. Rule for the calls: active = survival T/C of 150% or more; inactive = T/C below 125% in these data. Peptide text beside a SMILES is read from it. * marks the point of attachment. CH2Cl = ClC*

Test system: P388 leukemia ip, CD2F1 mice, survival T/C
Experiment: NCI In Vivo Anticancer Drug Screen. Data for tumor model P388 Leukemia (intraperitoneal) in CD2F1 (CDF1) mice
Settings: endpoint: median survival time, higher = longer survival
Procedure, shortened: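 Mice carrying the transplanted tumor received test compound or vehicle. Survival was recorded in each group, and the value is the treated-group measurement divided by that of the vehicle-treated control group.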

[1] = dose: 12.5 mg/kg/injection, schedule: Q01DX009 (ip), vehicle: distilled water + Tween-80
[2] = dose: 25.0 mg/kg/injection, schedule: Q01DX009 (ip), vehicle: distilled water + Tween-80
[3] = dose: 50.0 mg/kg/injection, schedule: Q01DX009 (ip), vehicle: distilled water + Tween-80
[4] = dose: 100.0 mg/kg/injection, schedule: Q01DX009 (ip), vehicle: distilled water + Tween-80
[5] = dose: 200.0 mg/kg/injection, schedule: Q01DX009 (ip), vehicle: distilled water + Tween-80
[6] = dose: 6.25 mg/kg/injection, schedule: Q01DX009 (ip), vehicle: saline with Tween-80
[7] = dose: 12.5 mg/kg/injection, schedule: Q01DX009 (ip), vehicle: saline with Tween-80
[8] = dose: 50.0 mg/kg/injection, schedule: Q01DX005 (ip), vehicle: Klucel (hydroxypropylcellulose) (HPC)
[9] = dose: 100.0 mg/kg/injection, schedule: Q01DX005 (ip), vehicle: Klucel (hydroxypropylcellulose) (HPC)
[10] = dose: 200.0 mg/kg/injection, schedule: Q01DX005 (ip), vehicle: Klucel (hydroxypropylcellulose) (HPC)
[11] = dose: 60.0 mg/kg/injection, schedule: Q01DX005 (ip), vehicle: saline with Tween-80
[12] = dose: 25.0 mg/kg/injection, schedule: Q01DX009 (ip), vehicle: saline with Tween-80
[13] = dose: 25.0 mg/kg/injection, schedule: Q01DX009 (ip), vehicle: Klucel (hydroxypropylcellulose) (HPC)
[14] = dose: 100.0 mg/kg/injection, schedule: Q01DX009 (ip), vehicle: saline with Tween-80
[15] = dose: 200.0 mg/kg/injection, schedule: Q01DX009 (ip), vehicle: saline with Tween-80
[16] = dose: 50.0 mg/kg/injection, schedule: Q01DX009 (ip), vehicle: saline with Tween-80
[17] = dose: 100.0 mg/kg/injection, schedule: Q04DX002 (ip), vehicle: saline with Tween-80

Measured: T/C

CCOC(=O)c1cc2c(OC)c(OC)ccc2c2[nH]cc(C#N)c(=O)c12
inactive: [1] 100 % of control | [2] 94 % of control | [3] 93 % of control | [4] 90 % of control | [5] 86 % of control

CCN(CC)CCCNc1ccc([N+](=O)[O-])c2no[n+]([O-])c12
inactive: dose: 50.0 mg/kg/injection, schedule: Q01DX009 (ip), vehicle: saline 99 % of control | dose: 100.0 mg/kg/injection, schedule: Q01DX009 (ip), vehicle: saline 100 % of control

CCc1cc2c(cc1C(=O)CBr)C(C)(C)CCC2(C)C
inactive: [6] 109 % of control | [7] 113 % of control | dose: 12.5 mg/kg/injection, schedule: Q04DX003 (ip), vehicle: saline with Tween-80 118 % of control | dose: 25.0 mg/kg/injection, schedule: Q04DX003 (ip), vehicle: saline with Tween-80 113 % of control

CC(C)NC1CCC(Nc2ccnc3cc(Cl)ccc23)CC1 (stereo unspecified)
inactive: [8] 98 % of control | [9] 97 % of control

[CH3][Sn]([CH3])([Cl])[CH2]CC[CH2][Sn]([CH3])([Cl])[Cl]
inactive: dose: 0.78 mg/kg/injection, schedule: Q01DX009 (ip), vehicle: saline 99 % of control | dose: 1.56 mg/kg/injection, schedule: Q01DX009 (ip), vehicle: saline 89 % of control | dose: 3.12 mg/kg/injection, schedule: Q01DX009 (ip), vehicle: saline 89 % of control

Nc1ccccc1C(=O)NCCc1c[nH]c2ccccc12
inactive: dose: 50.0 mg/kg/injection, schedule: Q01DX005 (ip), vehicle: saline with Tween-80 99 % of control | dose: 100.0 mg/kg/injection, schedule: Q01DX005 (ip), vehicle: saline with Tween-80 107 % of control | dose: 200.0 mg/kg/injection, schedule: Q01DX005 (ip), vehicle: saline with Tween-80 107 % of control

CCC(C)C(NC(=O)C(Cc1ccccc1)NC(=O)C(N)CSC)C(N)=O (stereo not drawn) (H-Cys(Me)-Phe-Ile-NH2; configuration not given here)
inactive: [8] 102 % of control | [9] 99 % of control | [10] 99 % of control

O=[N+]([O-])c1ccc(Nc2ccccc2)c2nonc12
inactive: [11] 110 % of control | dose: 120.0 mg/kg/injection, schedule: Q01DX005 (ip), vehicle: saline with Tween-80 97 % of control | dose: 240.0 mg/kg/injection, schedule: Q01DX005 (ip), vehicle: saline with Tween-80 94 % of control

CC1C/C(=C2/NC3CCCCC3NC2=O)C(=O)O1 (stereo unspecified)
inactive: [6] 100 % of control | [7] 95 % of control | [12] 92 % of control

COc1ccc(CCN2C(=O)CC(CC3=NCCc4cc(OC)c(OC)cc43)CC2=O)cc1OC
inactive: dose: 50.0 mg/kg/injection, schedule: Q01DX005 (ip), vehicle: saline 103 % of control | dose: 100.0 mg/kg/injection, schedule: Q01DX005 (ip), vehicle: saline 95 % of control

CC(=O)NC(CC(C)C)C(=O)NC(Cc1ccccc1)C(=O)CCl (stereo not drawn) (Ac-Leu-Phe-CH2Cl; configuration not given here)
inactive: dose: 3.12 mg/kg/injection, schedule: Q01DX009 (ip), vehicle: Klucel (hydroxypropylcellulose) (HPC) 103 % of control | dose: 6.25 mg/kg/injection, schedule: Q01DX009 (ip), vehicle: Klucel (hydroxypropylcellulose) (HPC) 113 % of control | dose: 12.5 mg/kg/injection, schedule: Q01DX009 (ip), vehicle: Klucel (hydroxypropylcellulose) (HPC) 120 % of control | [13] 116 % of control

CSCCn1ccnc1[N+](=O)[O-]
inactive: [1] 100 % of control | [2] 96 % of control | [3] 100 % of control | [4] 101 % of control | [5] 108 % of control

O=[N+]([O-])c1cccc(/C=C/C=C/c2ccc(Cl)c(S(=O)(=O)F)c2)c1
inactive: [14] 86 % of control | [15] 86 % of control | dose: 400.0 mg/kg/injection, schedule: Q01DX009 (ip), vehicle: saline with Tween-80 86 % of control

CCCCCCCCCCCCSC(SCCCCCCCCCCCC)SCCCCCCCCCCCC
inactive: [7] 97 % of control | [12] 92 % of control | [16] 99 % of control | [14] 106 % of control

COC(=O)Cn1/c(=N\N=C\c2ccc([N+](=O)[O-])cc2)sc2ccccc21
inactive: dose: 12.5 mg/kg/injection, schedule: Q01DX001 (ip), vehicle: saline with Tween-80 86 % of control | dose: 25.0 mg/kg/injection, schedule: Q01DX001 (ip), vehicle: saline with Tween-80 86 % of control | dose: 50.0 mg/kg/injection, schedule: Q01DX001 (ip), vehicle: saline with Tween-80 92 % of control | dose: 400.0 mg/kg/injection, schedule: Q01DX001 (ip), vehicle: saline with Tween-80 90 % of control

N#CC1CC2OC1CC(=O)C2(O)c1occc(=O)c1O (stereo unspecified)
inactive: [16] 100 % of control | [14] 107 % of control | [15] 105 % of control

O=S(=O)(O)SCCNCCCCC1CCCCC1
inactive: dose: 3.75 mg/kg/injection, schedule: Q01DX005 (ip), vehicle: saline with Tween-80 99 % of control | dose: 7.5 mg/kg/injection, schedule: Q01DX005 (ip), vehicle: saline with Tween-80 90 % of control | dose: 15.0 mg/kg/injection, schedule: Q01DX005 (ip), vehicle: saline with Tween-80 101 % of control and 104 % of control | dose: 30.0 mg/kg/injection, schedule: Q01DX005 (ip), vehicle: saline with Tween-80 111 % of control | [11] 120 % of control

ClC1(Cl)C(=C=C2C3CC4CC(C3)CC2C4)C12C1CC3CC(C1)CC2C3 (stereo unspecified)
inactive: [13] 100 % of control | dose: 50.0 mg/kg/injection, schedule: Q01DX008 (ip), vehicle: Klucel (hydroxypropylcellulose) (HPC) 101 % of control | dose: 100.0 mg/kg/injection, schedule: Q01DX008 (ip), vehicle: Klucel (hydroxypropylcellulose) (HPC) 101 % of control | dose: 100.0 mg/kg/injection, schedule: Q01DX009 (ip), vehicle: Klucel (hydroxypropylcellulose) (HPC) 94 % of control | dose: 200.0 mg/kg/injection, schedule: Q01DX008 (ip), vehicle: Klucel (hydroxypropylcellulose) (HPC) 87 % of control

O=c1[nH]c2n[nH]c(=S)n2c2c1CCC2
inactive: dose: 50.0 mg/kg/injection, schedule: Q04DX002 (ip), vehicle: saline with Tween-80 99 % of control | [17] 97 % of control | dose: 200.0 mg/kg/injection, schedule: Q04DX002 (ip), vehicle: saline with Tween-80 99 % of control

CCCC(=O)Oc1c(OC)cc(O)c2c(=O)c(O)c(-c3ccc(OC)cc3)oc12
inactive: dose: 14.0 mg/kg/injection, schedule: Q01DX005 (ip), vehicle: Klucel (hydroxypropylcellulose) (HPC) 89 % of control | dose: 56.0 mg/kg/injection, schedule: Q01DX005 (ip), vehicle: Klucel (hydroxypropylcellulose) (HPC) 87 % of control | dose: 112.0 mg/kg/injection, schedule: Q01DX005 (ip), vehicle: Klucel (hydroxypropylcellulose) (HPC) 108 % of control

CCN1C(SC)=NC(=O)C1(c1ccc(C)cc1)c1ccc(C)cc1
inactive: [8] 100 % of control | [9] 106 % of control | [10] 98 % of control

CSc1nc(N)n2ncc(Br)c2n1
inactive: [17] 92 % of control

CCCCOCC(=O)OC
inactive: [16] 102 % of control | [14] 102 % of control | [15] 107 % of control
